# Reference: paper PMC12332164, “Synthesis and biological activity study of tanshinone I-pyridinium salt derivatives” (Natural Products and Bioprospecting, 2025)
# Target: T1, PI3Kα (Homo sapiens, UniProt P42336)
# T1 construct: gene PIK3CA
# Test: biochemical
# T1 sequence (P42336 whole entry): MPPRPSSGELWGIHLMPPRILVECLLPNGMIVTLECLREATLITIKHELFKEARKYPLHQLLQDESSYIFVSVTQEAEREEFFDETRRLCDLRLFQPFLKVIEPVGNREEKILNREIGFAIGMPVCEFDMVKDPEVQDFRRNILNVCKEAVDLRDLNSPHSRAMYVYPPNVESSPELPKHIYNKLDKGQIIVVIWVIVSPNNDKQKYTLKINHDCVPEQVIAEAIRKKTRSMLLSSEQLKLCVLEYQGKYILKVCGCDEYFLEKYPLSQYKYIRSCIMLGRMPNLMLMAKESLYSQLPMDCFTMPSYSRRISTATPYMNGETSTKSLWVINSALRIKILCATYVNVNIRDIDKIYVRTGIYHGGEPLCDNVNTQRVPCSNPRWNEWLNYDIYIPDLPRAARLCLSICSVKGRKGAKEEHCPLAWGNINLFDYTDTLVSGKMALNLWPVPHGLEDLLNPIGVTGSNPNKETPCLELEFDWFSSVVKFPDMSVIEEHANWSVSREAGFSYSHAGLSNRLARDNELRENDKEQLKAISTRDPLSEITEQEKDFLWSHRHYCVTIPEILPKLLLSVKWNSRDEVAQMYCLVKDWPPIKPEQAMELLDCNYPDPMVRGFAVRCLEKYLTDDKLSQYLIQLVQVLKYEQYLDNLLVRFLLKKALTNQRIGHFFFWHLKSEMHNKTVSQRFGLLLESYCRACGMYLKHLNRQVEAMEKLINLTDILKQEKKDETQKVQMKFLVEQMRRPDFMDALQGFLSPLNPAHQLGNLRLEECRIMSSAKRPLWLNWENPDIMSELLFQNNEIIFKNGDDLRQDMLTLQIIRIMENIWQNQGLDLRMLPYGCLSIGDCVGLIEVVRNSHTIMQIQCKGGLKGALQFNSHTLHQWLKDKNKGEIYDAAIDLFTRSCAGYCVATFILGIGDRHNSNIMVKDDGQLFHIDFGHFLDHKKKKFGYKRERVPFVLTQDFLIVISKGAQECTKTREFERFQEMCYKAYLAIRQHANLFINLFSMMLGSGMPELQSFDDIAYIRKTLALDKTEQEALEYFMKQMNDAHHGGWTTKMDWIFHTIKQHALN
# T1 sequence (P27986 2-724, further chain): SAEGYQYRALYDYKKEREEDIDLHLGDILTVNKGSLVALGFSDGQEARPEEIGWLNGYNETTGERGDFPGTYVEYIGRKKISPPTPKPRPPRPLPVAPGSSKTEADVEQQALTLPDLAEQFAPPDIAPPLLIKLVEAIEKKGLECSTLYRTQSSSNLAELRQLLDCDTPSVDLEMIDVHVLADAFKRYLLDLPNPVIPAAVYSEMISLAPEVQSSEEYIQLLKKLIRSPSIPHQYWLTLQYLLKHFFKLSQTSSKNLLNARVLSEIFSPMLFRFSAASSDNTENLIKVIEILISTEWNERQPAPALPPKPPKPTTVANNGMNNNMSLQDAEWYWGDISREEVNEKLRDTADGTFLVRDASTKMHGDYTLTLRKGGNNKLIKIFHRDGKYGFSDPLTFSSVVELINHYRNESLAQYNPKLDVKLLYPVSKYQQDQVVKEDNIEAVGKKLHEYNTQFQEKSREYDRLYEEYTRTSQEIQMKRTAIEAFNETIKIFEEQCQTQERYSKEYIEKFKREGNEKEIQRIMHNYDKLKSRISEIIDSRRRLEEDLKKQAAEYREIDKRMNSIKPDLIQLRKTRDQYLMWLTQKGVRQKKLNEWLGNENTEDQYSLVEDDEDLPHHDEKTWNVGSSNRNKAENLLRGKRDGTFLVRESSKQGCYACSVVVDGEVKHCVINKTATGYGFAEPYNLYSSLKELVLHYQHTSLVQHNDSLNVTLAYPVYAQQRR
smiles,measurement,value
"Cc1cccc2c1ccc1c3occ(C)c3c3[nH]c(-c4ccc[n+](CC(=O)c5ccc(Br)cc5)c4)nc3c21 [a4, 1-(2-(4-bromophenyl)-2-oxoethyl)-3-(1,6-dimethyl-12H-furo[2',3':1,2]phenanthro[3,4-d]imidazol-11-yl) pyridin-1-ium bromide]",IC50,9.24 ± 0.2 µM
